Reference: patent US20230320995A1, “IONIZABLE CATIONIC LIPIDS AND LIPID NANOPARTICLES” (CAPSTAN THERAPEUTICS, INC., priority 2022, published 2023)
Read-outs that look alike come from different tables or passages of the source.

Columns and labels:
mouse splenic T cells [1] = assay: targeted transfection of T cells in vitro with CD5-targeted tLNP; type: cell-based; conditions: activated mouse splenic T cells, 0.6 μg tLNP per well; for transfection rate (proportion of CD3+ cells mCherry positive): 1 hour, read next day
Method: To assess the performance of tLNP described in Example 35 they were used to transfect mouse T cells in tissue culture. Mouse splenic T cells were isolated from mechanically dissociated mouse spleens using a standard T cell isolation kit (Stem Cell Technologies #19851). Isolated T cells were cultured in complete RPMI medium supplemented with murine interleukin-2 in the presence of CD3/CD28 T cell activation beads (Gibco #11453D) for 3 days. Following activation, T cells were magnetically separated from the activation beads and transferred to a 96-well plate at a concentration of 2×10^5 cells per well in 100 μL of complete RPMI medium. tLNP formulations as described in Example 35 (above) were diluted to 100 μg/mL and 6 μL (0.6 μg) of tLNP was added to each well of cells to be tested. Cells were incubated with tLNPs at 37° C. for 1 hour before tLNPs were washed away by centrifuging the plate, removing the supernatant, and replacing with fresh medium. Transfected cells were then returned to the incubator overnight. The next day, cells were washed and resuspended in stain buffer containing fluorescently tagged antibodies against T cells markers for 30 minutes before a final wash. After washing, cells were resuspended in stain buffer and run on the Novocyte Quanteon flow cytometer to detect mCherry expression as well as murine T cell markers. Results for CD3^+ T cells are depicted in FIG. 6.

[2] = apparent pKa of ionizable lipid in lipid nanoparticle, TNS assay; type: physicochemical; conditions: for ΔpKa: difference of calculated and measured pKa; for pKa: TNS assay
Method: c Log D and c-pKa were calculated as noted above. The measured pKa of a lipid was determined as formulated in a lipid nanoparticle using the TNS assay as described in the following Example.
The apparent pKa of ionizable lipid in the lipid nanoparticle was determined using 6-(p-toluidino)-2-naphthalenesulfonic acid sodium salt (TNS salt, Toronto Research Chemicals, Toronto, ON, Canada). Lipid nanoparticles were diluted in 1×Dulbecco's PBS to a concentration of 1 mM total lipids. TNS salt was prepared as a 1 mg/mL stock solution in DMSO and then further diluted using distilled water to a working solution of 60 μg/mL ([…]). Diluted lipid nanoparticle samples were further diluted to 90 μM total lipids in 165 μL of buffered solution containing 10 mM HEPES, 10 mM MES, 10 mM ammonium acetate, 130 mM NaCl, and final TNS concentration of 1.33 μg/mL (4 μM) with the pH ranging from 3.5 to 12.2. Following pipette mixing and incubation at room temperature in the dark for 15 min, fluorescence intensity was measured at room temperature in a BioTek Synergy H1 plate reader using excitation and emission wavelengths of 321 and 445 nm, respectively. The fluorescence signal was blank subtracted and plotted as a function of the pH, then analyzed using a nonlinear (Boltzmann) regression analysis with the apparent pKa determined as the pH giving rise to half maximal fluorescence intensity as calculated by the Henderson-Hasselbalch equation.

HEK293F cells = assay: transfection of HEK293F cells with mCherry mRNA LNP; type: cell-based; conditions: highest dose tested (2 μg RNA per well), 24 hours
Method: The ability of the LNP formed in the preceding Example to transfect HEK293F cells, a human embryonic kidney cell-derived cell line, with the mCherry mRNA was assessed. Viral Production Cells (Gibco Catalog number: A35347), a derivative of the HEK 293F cell line adapted to a chemically-defined, serum-free and protein-free medium (LV-MAX™ Production Medium; Gibco Catalog number: A3583401) were grown in suspension, sedimented, resuspended at about 1×10^6 cells/mL, and 200 μL distributed to the wells of a 96-well U-bottom plate. Frozen LNP were thawed and diluted to 100 μg mRNA/mL with sterile water for injection. An appropriate volume of LNP was added to provide 0, 0.3, 0.6, or 2 μg RNA per well in duplicate and mixed by re-pipetting. The cells were then incubated for 1 hour at 37° C. in a CO2 incubator, washed three times with phosphate buffered saline, resuspended in 400 μL of medium in a deep-well 96-well plate, and incubated at 37° C. in a CO2 incubator on an orbital shaker at 900 RPM.
Twenty-four hours after addition of the LNP to the cells they were stained with Aqua Live/Dead (Thermo: catalog L34965) to assess cell viability. Transfection rate and expression level in the transfected cells was assessed by flow cytometry based on mCherry fluorescence.

mouse splenic T cells [3] = assay: targeted transfection of T cells in vivo with CD5-targeted tLNP; conditions: C57Bl/6 mice, 10 μg via tail vein, spleen at 24 hours
Method: To assess the performance of tLNP described in Example 35 they were used to transfect mouse T cells by injecting the tLNP into live mice and evaluated for their ability to generate murine T cells that express the mCherry reporter gene in vivo. All tLNP test articles were thawed at room temperature for 30 minutes and then diluted 1:2 with sterile water for injection to achieve a final dose concentration of 100 μg/mL. 100 μL (10 μg) of each test article was then injected via the tail vein into 8-week-old female C57Bl/6 mice. All treated mice were then sacrificed at 24 hours post-treatment and their spleens collected. Each spleen was then dissociated to single cell suspension and stained with antibodies to identify T cells, B cells, monocytes and non-hematopoietic cells. Stained samples were then analyzed by flow cytometry for expression of mCherry in immune cell subsets, and non-hematopoietic cells. Data analysis was performed using FlowJo (Version 10.8.1) and GraphPad Prism (9.4.1.).

[4] = ionizable lipid in tLNP, read-out: Measured pKa
[5] = measured, lipid formulated in a lipid nanoparticle, read-out: pKa

SMILES | transfection rate (proportion of CD3+ cells mCherry positive) (mouse splenic T cells [1]) | ΔpKa [2] | pKa [2, 4] | pKa [2, 5] | transfection rate (HEK293F cells) | level of mCherry expression (MFI) in vivo (mouse splenic T cells [3]) | transfection rate of splenic T cells in vivo (mouse splenic T cells [3]) | level of mCherry expression (MFI) (mouse splenic T cells [1])
CCCCCCCCCC(=O)OCC(COC(=O)CCCCCCCCC)CC(=O)OCCN(CCOC(=O)CC(COC(=O)CCCCCCCCC)COC(=O)CCCCCCCCC)C(=O)NCCCN(C)C [Compound A-2] | poor, but still positive | 1.62 | 7.92 | 7.92 | – | – | – | –
CCCCCCCCC(=O)OCC(COC(=O)CCCCCCCC)CC(=O)OCCN(CCOC(=O)CC(COC(=O)CCCCCCCC)COC(=O)CCCCCCCC)C(=O)OCCN(C)C [Compound A-11] | ~80% | 1.81 | 6.65 | 6 to 7 | ~50% | distinctly greater than that achieved with the other tLNP | around 7% | high level of expression
